Reference: patent EP0420021B1, “Hydrophilic laminated porous membranes and methods of preparing same” (ABBOTT LABORATORIES, priority 1989, dated 1991)

Experiment: Capillary wicking time of laminated membrane strip (hydrophilicity)
Assay type: physicochemical
Excerpt: The terms "hydrophilic" and "wettable" are frequently used herein and are used interchangeably as antonyms for "hydrophobic". A number of procedures can be used to measure hydrophilicity. Since the membranes of the preferred embodiment resemble thin layer chromatograhic strips, hydrophilicity is here measured as the rate at which the solvent front traverses the membrane strips. Darcy's law provides a rate by relating the distance the front travels to the time t. For a fixed distance, L, the relevant measurement is the time taken for the front to reach L. A relative measure of hydrophilicity is given by comparing the time or "wicking" rate of treated laminated membranes against the time or wicking rate of untreated laminated membranes. Although relative hydrophilicity is sufficient, for purposes of this invention a membrane is considered "hydrophilic" if the flow rate is such that the front traverses a length compatible with visualizing a result (ie., 2 - 10 cm) in a time consistent with rapid diagnostic assays, (ie., less than 10 minutes and preferably less than 5 minutes).
[…] At various time intervals (0, 7, 14, 21, 28, 56, 84, 112, etc days) the hydrophilicity of the membrane was tested by immersing a strip of laminated membrane 1-3 mm into a test solution (0.1M Tris pH 7.4, 0.9% NaCl, phenol red) and measuring the time required for the solution front to migrate a distance of 5.4 cm. A more hydrophilic membrane requires a shorter time for the liquid to move 5.4 cm.

[1] = 0 days storage at 45° C, membrane treated with surfactant as example 4 Part E, laminated with Flexcon PM150C/V23/Poly SC9
[2] = 7 days storage at 45° C, surfactant-treated (example 4 Part E), Poly SC9 laminate
[3] = 14 days storage at 45° C, surfactant-treated (example 4 Part E), Poly SC9 laminate
[4] = 21 days storage at 45° C, surfactant-treated (example 4 Part E), Poly SC9 laminate
[5] = 28 days storage at 45° C, surfactant-treated (example 4 Part E), Poly SC9 laminate

Compound	Wicking Time to traverse 5.4 cm strip [1] [min]	Wicking Time to traverse 5.4 cm strip [2] [min]	Wicking Time to traverse 5.4 cm strip [3] [min]	Wicking Time to traverse 5.4 cm strip [4] [min]	Wicking Time to traverse 5.4 cm strip [5] [min]	membrane wicking rate as a result of the treatment (Part B: surfactant 0.1% w/v from isopropanol)
CCCCCCCCCCCCOS(=O)(=O)[O-].[Na+] [sodium dodecyl sulfate]	6.3	7.1	7.0	6.4	6.0	–
CCCCCCCCCCCCS(=O)(=O)O [dodecane sulfonic acid]	6.2	6.4	6.0	6.3	6.3	–
CCCCCCCS(=O)(=O)O [heptane sulfonic acid]	4.9	5.3	5.2	5.2	5.3	–
CCCCCS(=O)(=O)O [pentane sulfonic acid]	4.1	5.5	5.4	5.6	5.6	–
CCCCCCCCCCCCCCCCO [cetyl alcohol]	–	–	–	–	–	decreased
CCCCCCCCCCS(=O)(=O)O [decane sulfonic acid]	5.7	6.4	6.0	6.3	6.2	–
CCCCCCCCS(=O)(=O)O [octane sulfonic acid]	5.1	5.6	5.4	5.6	5.7	–
